According to publication PMC3969223, “Characterization of WZ4003 and HTH-01-015 as selective inhibitors of the LKB1-tumour-suppressor-activated NUAK kinases” (Biochemical Journal, 2013):
“And” between values parts separate entries of the source, which are not always exact repeats. Equal values may be shown once.

How the values were obtained:
NUAK1[A195T] = molecular target: T1, NUAK1[A195T] (Homo sapiens, UniProt O60285, A195T); experiment: GST–NUAK1[A195T] Sakamototide peptide kinase assay; type: biochemical; settings: for IC50: 200 μM Sakamototide, 100 μM [γ-32P]ATP; for Reduction of potency (resistance) by the NUAK1 A195T mutation: NUAK1[A195T] versus wild-type NUAK1
T1 construct: made in house; host or cells: HEK-293 cells, transient transfection of pEBG2T construct
T1 sequence (O60285 1-661 A195T): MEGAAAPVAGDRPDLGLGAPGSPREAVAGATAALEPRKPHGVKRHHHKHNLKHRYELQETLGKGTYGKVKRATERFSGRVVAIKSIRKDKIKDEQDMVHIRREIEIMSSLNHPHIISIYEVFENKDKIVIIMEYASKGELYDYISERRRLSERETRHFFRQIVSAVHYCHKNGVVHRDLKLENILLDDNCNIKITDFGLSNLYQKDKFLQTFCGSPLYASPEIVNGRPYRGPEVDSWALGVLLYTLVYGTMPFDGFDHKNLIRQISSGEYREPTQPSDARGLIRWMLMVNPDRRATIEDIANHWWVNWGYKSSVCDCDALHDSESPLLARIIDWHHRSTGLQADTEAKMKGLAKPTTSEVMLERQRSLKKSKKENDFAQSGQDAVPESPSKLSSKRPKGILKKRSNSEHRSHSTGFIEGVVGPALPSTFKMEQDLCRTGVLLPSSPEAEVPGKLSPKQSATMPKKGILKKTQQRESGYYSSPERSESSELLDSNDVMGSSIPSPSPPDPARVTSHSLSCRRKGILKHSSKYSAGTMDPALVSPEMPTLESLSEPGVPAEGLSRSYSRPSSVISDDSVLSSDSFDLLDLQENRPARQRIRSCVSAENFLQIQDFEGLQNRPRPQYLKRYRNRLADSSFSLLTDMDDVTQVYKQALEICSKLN
Experimental: Active GST–NUAK1, GST–NUAK1[A195T] and GST–NUAK2 enzymes were purified using glutathione–Sepharose from HEK-293 cell lysates 36–48 h following the transient transfection of pEBG2T mammalian constructs expressing N-terminal GST-tagged NUAK1, NUAK1[A195T] or NUAK2. For peptide kinase assays, 96-well plates were used, and each reaction was performed in triplicate. Each reaction was set up in a total volume of 50 μl containing 100 ng of NUAK1 (wild-type or A195T mutant) or NUAK2 in 50 mM Tris/HCl (pH 7.5), 0.1 mM EGTA, 10 mM magnesium acetate, 200 μM Sakamototide, 0.1 mM [γ-^32P]ATP (450–500 c.p.m./pmol) and the indicated concentrations of inhibitors dissolved in DMSO. After incubation for 30 min at 30°C, reactions were terminated by adding 25 mM (final) EDTA to chelate the magnesium. Then, 40 μl of the reaction mix was spotted on to P81 paper and immersed in 50 mM orthophosphoric acid. Samples were washed three times in 50 mM orthophosphoric acid followed by a single acetone rinse and air drying. The incorporation of [γ-^32P]ATP into Sakamototide was quantified by Cerenkov counting. The values were expressed as a percentage of the DMSO control. IC50 curves were developed and IC50 values were calculated using GraphPad Prism software.

[1] = system: MYPT1 Ser445 phosphorylation; experiment: MYPT1 Ser445 phosphorylation on EDTA-induced detachment, HEK-293; type: cell-based, human; settings: HEK-293, 16 h; for Suppression of MYPT1 Ser445 phosphorylation (in words): HTH-01-015 at 10 μM
Experimental: HEK (human embryonic kidney)-293 and U2OS cells were cultured in DMEM (Dulbecco's modified Eagle's medium) supplemented with 10% FBS, 2 mM glutamine and 1×antibacterial/antimycotic solution. NUAK1^+/+ and NUAK1^−/− MEFs were cultured in DMEM supplemented with 10% (v/v) FBS and 2 mM glutamine, 1×antibacterial/antimycotic solution, 1% (v/v) non-essential amino acids and 1% (v/v) sodium pyruvate. HEK-293 Flp/In T-Rex cell lines were cultured in DMEM supplemented with 10% (v/v) FBS and 2 mM glutamine, 1×antibacterial/antimycotic solution, 100 μg/ml hygromycin and 15 μg/ml blasticidin. Supplementing the culture medium with 0.1 μg/ml doxycycline for 16–24 h induced protein expression in the HEK-293 Flp/In T-Rex cells. Cell counting was carried out using Invitrogen Countess following the manufacturer's protocol. A cell-detachment assay was carried out on HEK-293 cells using PBS-EDTA-based cell dissociation buffer as described previously. An inhibitor dose-dependence assay was carried out by treating the cells with various concentrations of the inhibitors as indicated in the Figure legends. The inhibitors were dissolved in DMSO and the total concentration of DMSO in the culture media never exceeded 1%. Transient transfections of HEK-293 cells were carried out using PEI [24]. Stable transfections were carried out in HEK-293 Flp/In T-Rex cells (Invitrogen) following the manufacturer's protocol. Lentivirus-mediated knock down of NUAK1 was carried out in U2OS cells using shRNA constructs as described previously. Post-treatment and/or transfection, cells were lysed in lysis buffer containing 50 mM Tris/HCl (pH 7.5), 1 mM EGTA, 1 mM EDTA, 1% Triton X-100, 50 mM NaF, 10 mM sodium 2-glycerophosphate, 5 mM sodium pyrophosphate, 1 mM sodium orthovanadate, 0.27 M sucrose, 1 mM benzamidine (added before lysis), 1 mM PMSF (added before lysis) and 0.1% 2-mercaptoethanol (added before lysis). Lysates were clarified by centrifugation at 16000 g for 15 min at 4°C and either used for further experiments or snap-frozen in liquid nitrogen and stored at −80°C. Protein estimation was carried out using the Bradford method with BSA as a standard.
Figure 5 HTH-01-015 and WZ4003 inhibit MYPT1 Ser^445 phosphorylation in vivo (A) HEK-293 cells were treated in the absence (DMSO) or presence of the indicated concentrations of WZ4003 over 16 h. Cell medium was then replaced with either normal DMEM containing no EDTA-PBS-based cell dissociation buffer (−) or EDTA-PBS-based cell dissociation buffer (+) containing the same concentration of WZ4003 that the cells were previously incubated in. Cell detachment was induced with gentle tapping of the plates followed by gentle centrifugation at 70 g for 3 min. Cells were lysed immediately after removal of the supernatant. Endogenous MYPT1 was immunoprecipitated from 0.5 mg of the cell lysates. The immunoprecipitates were immunoblotted for the detection of p-Ser^445 MYPT1 and total MYPT1. The cell lysates were subjected to immunoblotting for the detection of p-Ser^79 ACC and total ACC. Similar results were obtained in three separate experiments. (B) As in (A) except for the HTH-01-015 inhibitor was used. (C–F) As above except that HEK-293 Flp/In T-Rex cells stably expressing the indicated wild-type HA-tagged NUAK1 or drug-resistant HA-tagged NUAK1[A195T] were used. Similar results were obtained in three separate experiments for all data shown on this Figure.

| SMILES | IC50 (NUAK1[A195T]) [nM] | Reduction of potency (resistance) by the NUAK1 A195T mutation (NUAK1[A195T]) | Suppression of MYPT1 Ser445 phosphorylation (in words) [1] | Inhibitor concentration for maximal suppression of MYPT1 Ser445 phosphorylation [1] [µM] |
| --- | --- | --- | --- | --- |
| CN1C(=O)c2cc3ccccc3cc2N(C)c2nc(Nc3cnn(C4CCNCC4)c3)ncc21 [XMD-18-42] | 1500 | > 50 fold | only partially suppressed | – |
| CCC(=O)Nc1cccc(Oc2nc(Nc3ccc(N4CCN(C)CC4)cc3OC)ncc2Cl)c1 [WZ4003] | 900 | ~ 50 fold and 45 fold | suppressed MYPT1 phosphorylation in a dose-dependent manner | 3 to 10 |
| CN1C(=O)c2ccccc2N(C)c2nc(Nc3cnn(C4CCNCC4)c3)ncc21 [XMD-17-51] | 600 | > 50 fold | only partially suppressed | – |
| Cc1nc(Nc2cnn(C3CCNCC3)c2)nc2c1N(C)C(=O)c1cc3ccccc3cc1N2C [HTH-01-015] | 5890 | ~ 50 fold and ~ 60 fold | only led to a partial inhibition | 3 to 10 |
